Measured values from US20240158348A1, “HERBICIDAL CYCLIC AMIDES N-SUBSTITUTED WITH A HALOALKYLSULFONYLANILIDE GROUP” (FMC Corporation, priority 2021, published 2024).

Tests used:
Type in all cases: in vivo
[1] = system: oat, wild (wild oat, Avena fatua); test: Test C postemergence, wild oat; details: visual injury, 0 to 100 scale (0 no effect, 100 complete control)
kochia (Bassia scoparia) [2] = test: Test C preemergence, kochia; details: 0 is no effect, 100 is complete control
Procedure, shortened: (§1)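 Herbicidal effect was estimated visually on a 0–100 scale 10 or 12 days after spraying. Formulation: non-phytotoxic solvent mixture with surfactant. Timing: directed soil spray after sowing, or postemergence on seedlings bearing one or two leaves.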

[3] = system: ducksalad (Heteranthera limosa); test: Test D flooded paddy test, ducksalad; set-up: key: 0 = no effect, 100 = complete control; details: 250 g ai/ha, Flood; applied to paddy water at 2-leaf stage; visual rating after 13 days; scale 0 (no effect) to 100 (complete control)
Procedure, shortened: (§2)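 Visual response scores run 0 (no effect) to 100 (complete control), judged against controls 13 days after treatment. Compounds were added to paddy water 3 cm deep over soil, around plants at the 2-leaf stage kept in a greenhouse.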

[4] = system: ryegrass, Italian (Italian ryegrass, Lolium multiflorum); test: Test C postemergence, Italian ryegrass; details: visual injury, 0 to 100 scale (0 no effect, 100 complete control)
Procedure, shortened: as §1

[5] = system: oat, wild (wild oat, Avena fatua); test: Test C preemergence, wild oat; details: 0 is no effect, 100 is complete control
Procedure, shortened: as §1

[6] = system: ryegrass, Italian (Italian ryegrass, Lolium multiflorum); test: Test C preemergence, Italian ryegrass; details: 0 is no effect, 100 is complete control
Procedure, shortened: as §1

[7] = system: blackgrass (Alopecurus myosuroides); test: Test C postemergence, blackgrass; details: visual injury, 0 to 100 scale (0 no effect, 100 complete control)
Procedure, shortened: as §1

corn (Zea mays) [8] = test: Test C preemergence, corn; details: 0 is no effect, 100 is complete control
Procedure, shortened: (§3)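 Greenhouse pot test. Compounds in a non-phytotoxic solvent with surfactant were applied to a loam–sand soil mix either preemergence as a directed spray or postemergence to plants at the one- to two-leaf stage; 0–100 visual ratings followed after 10 or 12 days.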

[9] = system: wheat (Triticum aestivum); test: Test C preemergence, wheat; details: 0 is no effect, 100 is complete control
[10] = system: pigweed, palmer (palmer amaranth, Amaranthus palmeri); test: Test C postemergence, palmer amaranth; details: visual injury, 0 to 100 scale (0 no effect, 100 complete control)
Procedure, shortened: as §1

rice (Oryza sativa) = test: Test D flooded paddy test, rice; set-up: key: 0 = no effect, 100 = complete control; details: 250 g ai/ha, Flood; applied to paddy water at 2-leaf stage; visual rating after 13 days; scale 0 (no effect) to 100 (complete control)
Procedure, shortened: as §2

[11] = system: wheat (Triticum aestivum); test: Test C postemergence, wheat; details: visual injury, 0 to 100 scale (0 no effect, 100 complete control)
Procedure, shortened: as §1

[12] = system: foxtail, giant (giant foxtail, Setaria faberi); test: Test C postemergence, giant foxtail; details: visual injury, 0 to 100 scale (0 no effect, 100 complete control)
[13] = system: barnyardgrass (Echinochloa crusgalli); test: Test D flooded paddy test, barnyardgrass; set-up: key: 0 = no effect, 100 = complete control; details: 250 g ai/ha, Flood; applied to paddy water at 2-leaf stage; visual rating after 13 days; scale 0 (no effect) to 100 (complete control)
Procedure, shortened: as §2

[14] = system: foxtail, giant (giant foxtail, Setaria faberi); test: Test C preemergence, giant foxtail; details: 0 is no effect, 100 is complete control
Procedure, shortened: as §1

[15] = system: sedge, umbrella (small-flower umbrella sedge, Cyperus difformis); test: Test D flooded paddy test, umbrella sedge; set-up: key: 0 = no effect, 100 = complete control; details: 250 g ai/ha, Flood; applied to paddy water at 2-leaf stage; visual rating after 13 days; scale 0 (no effect) to 100 (complete control)
Procedure, shortened: as §2

[16] = system: ragweed (common ragweed, Ambrosia artemisiifolia); test: Test C preemergence, ragweed; details: 0 is no effect, 100 is complete control
Procedure, shortened: as §3

[17] = system: blackgrass (Alopecurus myosuroides); test: Test C preemergence, blackgrass; details: 0 is no effect, 100 is complete control
From the text: (§4) Seeds of plant species selected from blackgrass (Alopecurus myosuroides), corn (Zea mays), foxtail, giant (giant foxtail, Setaria faberi), goosegrass (Eleusine indica), kochia (Bassia scoparia), oat, wild (wild oat, Avena fatua), pigweed, palmer (palmer amaranth, Amaranthus palmeri), ragweed (common ragweed, Ambrosia artemisiifolia), ryegrass, Italian (Italian ryegrass, Lolium multiflorum), soybean (Glycine max) and wheat (Triticum aestivum) were planted into a blend of loam soil and sand and treated preemergence with a directed soil spray using test chemicals formulated in a non-phytotoxic solvent mixture which included a surfactant.
(§5) At the same time, plants selected from these crop and weed species and also galium (catchweed bedstraw, Galium aparine) and horseweed (Erigeron canadensis) were planted in pots containing the same blend of loam soil and sand and treated with postemergence applications of test chemicals formulated in the same manner. Plants ranged in height from 2 to 10 cm and were in the one- to two-leaf stage for the postemergence treatment. Treated plants and untreated controls were maintained in a greenhouse for 10 or 12 days, after which time all treated plants were compared to untreated controls and visually evaluated for injury. Plant response ratings, summarized in Table A, are based on a 0 to 100 scale where 0 is no effect and 100 is complete control. A dash (-) response means no test result.

kochia (Bassia scoparia) [18] = test: Test C postemergence, kochia; details: visual injury, 0 to 100 scale (0 no effect, 100 complete control)
Procedure, shortened: as §1

soybean (Glycine max) [19] = test: Test C preemergence, soybean; details: 0 is no effect, 100 is complete control
Procedure, shortened: as §1

[20] = system: goosegrass (Eleusine indica); test: Test C preemergence, goosegrass; details: 0 is no effect, 100 is complete control
Procedure, shortened: as §3

soybean (Glycine max) [21] = test: Test C postemergence, soybean; details: visual injury, 0 to 100 scale (0 no effect, 100 complete control)
corn (Zea mays) [22] = test: Test C postemergence, corn; details: visual injury, 0 to 100 scale (0 no effect, 100 complete control)
[23] = system: ragweed (common ragweed, Ambrosia artemisiifolia); test: Test C postemergence, ragweed; details: visual injury, 0 to 100 scale (0 no effect, 100 complete control)
Procedure, shortened: as §1

[24] = system: goosegrass (Eleusine indica); test: Test C postemergence, goosegrass; details: visual injury, 0 to 100 scale (0 no effect, 100 complete control)
Procedure, shortened: as §1

[25] = system: pigweed, palmer (palmer amaranth, Amaranthus palmeri); test: Test C preemergence, palmer amaranth; details: 0 is no effect, 100 is complete control
Procedure, shortened: as §1

[26] = system: galium (catchweed bedstraw, Galium aparine); test: Test C postemergence, galium; details: visual injury, 0 to 100 scale (0 no effect, 100 complete control)
From the text: as §4, §5

[27] = system: horseweed (Erigeron canadensis); test: Test C postemergence, horseweed; details: visual injury, 0 to 100 scale (0 no effect, 100 complete control)
From the text: as §4, §5

Structure (SMILES): Cc1cc(C)c(N2CCC(OCC3CCC3)C2=O)cc1NS(=O)(=O)C(F)(F)F (stereo not shown) [Compound 43]
- Oat, Wild plant response rating ([1]; 31 g ai/ha Postemergence): 10
- Oat, Wild plant response rating ([1]; 125 g ai/ha Postemergence): 20
- Plant response rating (0 to 100 scale), Kochia (kochia (Bassia scoparia) [2]; 31 g ai/ha Preemergence): 60
- Plant response rating (0 to 100 scale), Kochia (kochia (Bassia scoparia) [2]; 125 g ai/ha Preemergence): 80
- Plant response rating, Ducksalad [3]: 95
- Ryegrass, Italian plant response rating ([4]; 31 g ai/ha Postemergence): 30
- Ryegrass, Italian plant response rating ([4]; 125 g ai/ha Postemergence): 70
- Plant response rating (0 to 100 scale), Oat, Wild ([5]; 31 g ai/ha Preemergence): 0
- Plant response rating (0 to 100 scale), Oat, Wild ([5]; 125 g ai/ha Preemergence): 50
- Plant response rating (0 to 100 scale), Ryegrass, Italian ([6]; 31 g ai/ha Preemergence): 80
- Plant response rating (0 to 100 scale), Ryegrass, Italian ([6]; 125 g ai/ha Preemergence): 100
- Blackgrass plant response rating ([7]; 31 g ai/ha Postemergence): 0
- Blackgrass plant response rating ([7]; 125 g ai/ha Postemergence): 50
- Plant response rating (0 to 100 scale), Corn (corn (Zea mays) [8]; 31 g ai/ha Preemergence): 40
- Plant response rating (0 to 100 scale), Corn (corn (Zea mays) [8]; 125 g ai/ha Preemergence): 100
- Plant response rating (0 to 100 scale), Wheat ([9]; 31 g ai/ha Preemergence): 20
- Plant response rating (0 to 100 scale), Wheat ([9]; 125 g ai/ha Preemergence): 100
- Pigweed, Palmer plant response rating ([10]; 31 g ai/ha Postemergence): 40
- Pigweed, Palmer plant response rating ([10]; 125 g ai/ha Postemergence): 90
- Plant response rating, Rice (rice (Oryza sativa)): 30
- Wheat plant response rating ([11]; 31 g ai/ha Postemergence): 30
- Wheat plant response rating ([11]; 125 g ai/ha Postemergence): 70
- Foxtail, Giant plant response rating ([12]; 31 g ai/ha Postemergence): 10
- Foxtail, Giant plant response rating ([12]; 125 g ai/ha Postemergence): 90
- Plant response rating, Barnyardgrass [13]: 25
- Plant response rating (0 to 100 scale), Foxtail, Giant ([14]; 31 g ai/ha Preemergence): 30
- Plant response rating (0 to 100 scale), Foxtail, Giant ([14]; 125 g ai/ha Preemergence): 100
- Plant response rating, Sedge, Umbrella [15]: 95
- Plant response rating (0 to 100 scale), Ragweed ([16]; 31 g ai/ha Preemergence): 10
- Plant response rating (0 to 100 scale), Ragweed ([16]; 125 g ai/ha Preemergence): 60
- Plant response rating (0 to 100 scale), Blackgrass ([17]; 31 g ai/ha Preemergence): 40
- Plant response rating (0 to 100 scale), Blackgrass ([17]; 125 g ai/ha Preemergence): 50
- Kochia plant response rating (kochia (Bassia scoparia) [18]; 31 g ai/ha Postemergence): 20
- Kochia plant response rating (kochia (Bassia scoparia) [18]; 125 g ai/ha Postemergence): 60
- Plant response rating (0 to 100 scale), Soybean (soybean (Glycine max) [19]; 31 g ai/ha Preemergence): 10
- Plant response rating (0 to 100 scale), Soybean (soybean (Glycine max) [19]; 125 g ai/ha Preemergence): 90
- Plant response rating (0 to 100 scale), Goosegrass ([20]; 31 g ai/ha Preemergence): 60
- Plant response rating (0 to 100 scale), Goosegrass ([20]; 125 g ai/ha Preemergence): 100
- Soybean plant response rating (soybean (Glycine max) [21]; 31 g ai/ha Postemergence): 80
- Soybean plant response rating (soybean (Glycine max) [21]; 125 g ai/ha Postemergence): 90
- Corn plant response rating (corn (Zea mays) [22]; 31 g ai/ha Postemergence): 40
- Corn plant response rating (corn (Zea mays) [22]; 125 g ai/ha Postemergence): 90
- Ragweed plant response rating ([23]; 31 g ai/ha Postemergence): 50
- Ragweed plant response rating ([23]; 125 g ai/ha Postemergence): 90
- Goosegrass plant response rating ([24]; 31 g ai/ha Postemergence): 20
- Goosegrass plant response rating ([24]; 125 g ai/ha Postemergence): 90
- Plant response rating (0 to 100 scale), Pigweed, Palmer ([25]; 31 g ai/ha Preemergence): 70
- Plant response rating (0 to 100 scale), Pigweed, Palmer ([25]; 125 g ai/ha Preemergence): 100
- Galium plant response rating ([26]; 31 g ai/ha Postemergence): 70
- Galium plant response rating ([26]; 125 g ai/ha Postemergence): 90
- Horseweed plant response rating ([27]; 31 g ai/ha Postemergence): 30
- Horseweed plant response rating ([27]; 125 g ai/ha Postemergence): 60
